Reference: US7214690B2, “Tricyclic quinolinone and tricyclic quinoline androgen receptor modulator compounds and methods” (Ligand Pharmaceuticals Incorporated, priority 2001, dated 2007)

Key:
Type in all cases: cell-based
[1] = biological target: T1, PR (Homo sapiens, UniProt P06401); test: co-transfection assay, PR
T1 construct: expressed in transfected cells; host or cells: background cell substantially devoid of endogenous IRs (CV-1 described for the co-transfection assay)
T1 sequence (P06401 1-933): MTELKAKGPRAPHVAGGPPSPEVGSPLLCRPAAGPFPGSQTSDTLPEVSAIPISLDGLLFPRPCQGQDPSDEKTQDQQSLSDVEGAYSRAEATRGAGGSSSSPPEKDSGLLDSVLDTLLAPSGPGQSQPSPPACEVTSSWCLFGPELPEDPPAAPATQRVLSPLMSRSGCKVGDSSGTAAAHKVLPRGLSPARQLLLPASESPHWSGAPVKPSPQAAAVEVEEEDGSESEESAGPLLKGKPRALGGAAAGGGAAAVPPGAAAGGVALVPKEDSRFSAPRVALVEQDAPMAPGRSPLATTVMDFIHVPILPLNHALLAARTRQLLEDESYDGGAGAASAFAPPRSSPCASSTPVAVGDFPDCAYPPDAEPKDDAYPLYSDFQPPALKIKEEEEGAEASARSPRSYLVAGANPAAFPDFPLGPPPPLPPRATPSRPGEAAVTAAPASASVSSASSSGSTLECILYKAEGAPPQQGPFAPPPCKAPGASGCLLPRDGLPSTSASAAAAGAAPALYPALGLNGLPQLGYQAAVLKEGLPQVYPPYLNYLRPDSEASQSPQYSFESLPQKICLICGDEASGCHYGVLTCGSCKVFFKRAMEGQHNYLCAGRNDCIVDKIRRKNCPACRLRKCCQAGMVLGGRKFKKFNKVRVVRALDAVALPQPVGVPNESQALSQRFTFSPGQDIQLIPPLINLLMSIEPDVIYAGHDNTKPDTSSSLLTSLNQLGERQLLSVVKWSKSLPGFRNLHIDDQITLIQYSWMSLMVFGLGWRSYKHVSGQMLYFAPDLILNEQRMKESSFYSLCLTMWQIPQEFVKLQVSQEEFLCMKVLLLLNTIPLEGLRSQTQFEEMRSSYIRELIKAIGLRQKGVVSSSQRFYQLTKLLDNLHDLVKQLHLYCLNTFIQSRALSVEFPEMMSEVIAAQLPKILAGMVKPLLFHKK
Description: (§1) CV-1 cells (African green monkey kidney fibroblasts) were cultured in the presence of Dulbecco's Modified Eagle Medium (DMEM) supplemented with 10% charcoal resin-stripped fetal bovine serum (CH-FBS) then transferred to 96-well microtiter plates one day prior to transfection.
(§2) Three to four replicates were used for each sample.
(§3) After 40 hours, the cells were washed with PBS, lysed with a Triton X-100-based buffer and assayed for LUC and β-Gal activities using a luminometer or spectrophotometer, respectively. For each replicate, the normalized response (NR) was calculated as: LUC response/β-Gal rate • where β-Gal rate=β-Gal/β-Gal incubation time.

[2] = biological target: T2, MR (Homo sapiens, UniProt P08235); test: co-transfection assay, MR
T2 construct: expressed in transfected cells; host or cells: background cell substantially devoid of endogenous IRs (CV-1 described for the co-transfection assay)
T2 sequence (P08235 1-984): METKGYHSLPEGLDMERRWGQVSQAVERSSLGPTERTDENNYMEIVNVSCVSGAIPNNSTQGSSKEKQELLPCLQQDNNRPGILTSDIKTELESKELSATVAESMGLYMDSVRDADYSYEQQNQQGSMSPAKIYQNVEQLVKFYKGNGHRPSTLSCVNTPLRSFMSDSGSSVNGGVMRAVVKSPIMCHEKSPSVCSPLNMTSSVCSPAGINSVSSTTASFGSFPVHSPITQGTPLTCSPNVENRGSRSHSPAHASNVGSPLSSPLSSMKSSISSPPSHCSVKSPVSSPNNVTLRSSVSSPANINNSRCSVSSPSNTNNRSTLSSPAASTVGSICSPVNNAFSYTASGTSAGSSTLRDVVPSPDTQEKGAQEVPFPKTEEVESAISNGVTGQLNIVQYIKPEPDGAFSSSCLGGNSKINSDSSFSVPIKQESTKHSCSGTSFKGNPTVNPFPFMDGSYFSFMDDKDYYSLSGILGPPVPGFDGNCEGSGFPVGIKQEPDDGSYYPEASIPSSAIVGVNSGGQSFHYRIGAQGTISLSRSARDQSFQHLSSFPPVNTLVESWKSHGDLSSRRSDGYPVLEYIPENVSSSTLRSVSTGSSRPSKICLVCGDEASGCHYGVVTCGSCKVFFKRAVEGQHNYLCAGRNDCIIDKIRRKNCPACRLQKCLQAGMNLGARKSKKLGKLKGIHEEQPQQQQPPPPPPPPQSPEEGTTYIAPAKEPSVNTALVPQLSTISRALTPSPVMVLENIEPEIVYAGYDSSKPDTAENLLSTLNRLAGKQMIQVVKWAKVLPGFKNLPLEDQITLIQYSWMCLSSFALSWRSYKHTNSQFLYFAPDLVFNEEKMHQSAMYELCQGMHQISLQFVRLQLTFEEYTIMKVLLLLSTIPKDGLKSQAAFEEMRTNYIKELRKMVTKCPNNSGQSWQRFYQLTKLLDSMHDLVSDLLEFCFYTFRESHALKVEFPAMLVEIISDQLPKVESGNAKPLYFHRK
Description: as §1, §2, §3

[3] = biological target: T3, ER (Homo sapiens, UniProt P03372); test: co-transfection assay, ER
T3 construct: expressed in transfected cells; host or cells: background cell substantially devoid of endogenous IRs (CV-1 described for the co-transfection assay)
T3 sequence (P03372 1-595): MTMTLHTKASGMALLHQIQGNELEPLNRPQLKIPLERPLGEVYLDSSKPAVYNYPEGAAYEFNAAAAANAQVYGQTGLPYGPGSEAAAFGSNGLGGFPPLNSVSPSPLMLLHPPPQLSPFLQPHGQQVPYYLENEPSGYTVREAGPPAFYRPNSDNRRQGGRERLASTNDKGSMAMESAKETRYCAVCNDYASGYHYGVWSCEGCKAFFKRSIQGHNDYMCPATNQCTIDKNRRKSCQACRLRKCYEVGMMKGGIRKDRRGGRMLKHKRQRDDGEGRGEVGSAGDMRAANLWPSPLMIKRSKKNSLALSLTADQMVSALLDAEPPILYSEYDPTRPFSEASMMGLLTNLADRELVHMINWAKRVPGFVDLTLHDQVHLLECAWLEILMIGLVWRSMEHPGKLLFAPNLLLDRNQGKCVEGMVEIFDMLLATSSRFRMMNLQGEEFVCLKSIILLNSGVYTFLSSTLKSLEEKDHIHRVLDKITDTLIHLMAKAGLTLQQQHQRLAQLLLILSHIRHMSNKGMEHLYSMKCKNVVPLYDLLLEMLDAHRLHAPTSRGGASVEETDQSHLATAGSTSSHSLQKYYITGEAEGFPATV
Description: as §1, §2, §3

[4] = biological target: T4, GR (Homo sapiens, UniProt P04150); test: co-transfection assay, GR
T4 construct: expressed in transfected cells; host or cells: background cell substantially devoid of endogenous IRs (CV-1 described for the co-transfection assay)
T4 sequence (P04150 1-777): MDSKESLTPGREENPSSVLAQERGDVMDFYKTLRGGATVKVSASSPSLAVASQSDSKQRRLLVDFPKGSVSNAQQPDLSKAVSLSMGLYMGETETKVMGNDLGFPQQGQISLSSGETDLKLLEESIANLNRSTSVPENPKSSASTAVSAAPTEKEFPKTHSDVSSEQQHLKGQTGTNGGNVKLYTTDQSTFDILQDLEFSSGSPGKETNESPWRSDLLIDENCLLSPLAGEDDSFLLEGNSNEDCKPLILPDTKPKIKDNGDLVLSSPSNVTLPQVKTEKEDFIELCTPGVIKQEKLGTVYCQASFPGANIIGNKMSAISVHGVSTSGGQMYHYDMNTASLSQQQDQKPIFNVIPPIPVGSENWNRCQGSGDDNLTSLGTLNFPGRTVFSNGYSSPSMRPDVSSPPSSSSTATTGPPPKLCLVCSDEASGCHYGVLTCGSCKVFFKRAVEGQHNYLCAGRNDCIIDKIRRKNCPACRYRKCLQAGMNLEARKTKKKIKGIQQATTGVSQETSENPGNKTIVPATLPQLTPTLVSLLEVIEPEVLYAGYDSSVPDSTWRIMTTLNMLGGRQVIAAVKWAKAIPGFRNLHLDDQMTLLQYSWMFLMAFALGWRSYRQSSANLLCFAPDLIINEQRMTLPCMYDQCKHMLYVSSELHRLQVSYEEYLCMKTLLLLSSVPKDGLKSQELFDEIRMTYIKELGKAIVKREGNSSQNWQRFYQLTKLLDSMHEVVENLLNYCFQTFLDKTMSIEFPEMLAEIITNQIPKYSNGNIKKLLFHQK
Description: as §1, §2, §3

CCN1c2ccc3[nH]c(=O)cc(C(F)(F)F)c3c2OC[C@H]1C [Compound 103, (3R)-4-Ethyl-2,3,4,7-tetrahydro-3-methyl-10-(trifluoromethyl)-8H-[1,4]oxazino[2,3-f]quinolin-8-one]
> 10 µM: EC50 [1] | IC50 [2] | EC50 [3] | IC50 [3] | IC50 [4]

C[C@@H]1COc2c(ccc3[nH]c(=O)cc(C(F)(F)F)c23)N1 [Compound 101, (3R)-2,3,4,7-Tetrahydro-3-methyl-10-(trifluoromethyl)-8H-[1,4]oxazino[2,3-f]quinolin-8-one]
> 10 µM: EC50 [1] | IC50 [2] | EC50 [3] | IC50 [3] | IC50 [4]
